Experimental findings from ChEMBL document CHEMBL1201862, “PubChem BioAssay data set” (2004) are described below.

In assay [1] the target is ELAV-like protein 1 (Homo sapiens, UniProt Q15717). The assay is described as follows: Identify HuR specific inhibitors. It counts as functional.
Assay [2] has as its target T1, Probable nicotinate-nucleotide adenylyltransferase (Staphylococcus aureus (strain N315), UniProt P65502). It counts as functional, Staphylococcus aureus subsp. aureus N315.
For assay [3], the target named is Envelope glycoprotein gp160 (Human immunodeficiency virus 1, UniProt Q6QLK5). Kind of assay: cell-free HIV fusion peptide-binding blockers – biochemical, uHTS, fluorescence dequenching, […] (AID 1986).
Chain of Envelope glycoprotein gp160 (Q6QLK5 whole entry, the tested form may be a part): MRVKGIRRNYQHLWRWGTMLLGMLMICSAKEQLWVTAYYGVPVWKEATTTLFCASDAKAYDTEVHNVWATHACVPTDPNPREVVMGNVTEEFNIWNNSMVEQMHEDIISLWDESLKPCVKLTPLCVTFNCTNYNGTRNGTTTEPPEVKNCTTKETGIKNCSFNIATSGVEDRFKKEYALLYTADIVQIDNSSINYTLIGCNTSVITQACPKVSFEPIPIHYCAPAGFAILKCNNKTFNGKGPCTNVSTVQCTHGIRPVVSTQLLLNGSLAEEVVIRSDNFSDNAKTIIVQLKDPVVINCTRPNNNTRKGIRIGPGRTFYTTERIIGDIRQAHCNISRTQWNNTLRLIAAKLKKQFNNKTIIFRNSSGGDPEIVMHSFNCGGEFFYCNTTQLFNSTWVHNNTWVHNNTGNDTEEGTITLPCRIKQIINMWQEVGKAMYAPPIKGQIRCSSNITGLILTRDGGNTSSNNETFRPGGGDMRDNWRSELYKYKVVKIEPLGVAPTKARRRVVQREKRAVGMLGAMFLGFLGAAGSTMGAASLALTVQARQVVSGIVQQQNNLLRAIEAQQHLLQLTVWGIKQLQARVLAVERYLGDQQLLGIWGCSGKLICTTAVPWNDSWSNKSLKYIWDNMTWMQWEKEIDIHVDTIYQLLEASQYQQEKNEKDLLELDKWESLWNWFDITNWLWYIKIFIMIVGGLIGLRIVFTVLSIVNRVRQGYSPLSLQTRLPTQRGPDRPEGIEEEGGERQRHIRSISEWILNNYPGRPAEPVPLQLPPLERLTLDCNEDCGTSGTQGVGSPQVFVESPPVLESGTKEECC
The target in assay [4] is T1, Probable nicotinate-nucleotide adenylyltransferase. It counts as functional, Staphylococcus aureus subsp. aureus N315. The following applies: read-out: IC50_Mean.
Assay [5] is described as follows: CCR5-tropic HIV-1 fusion blockers – cell-based, CCR5-tropic Env, dose response (AID 2279). In kind it is functional.
Assay [6] has as its target Luciferin 4-monooxygenase (Photinus pyralis, UniProt P08659). The assay is described as follows: Counter Screen for Luciferase-based Assay Positives. [Related pubchem assays: 620, 618, 411 ]. (In general: The purpose of a counterscreen is to sort out artefacts and off-target activity.)
Assay [7] has as its system INS1. Kind of assay: INS-1E survival protection against cytokine death – cell-based, luminescence, retest, dose response (AID 449756).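 Note: cell death triggered by IL-1 beta plus TNF-alpha plus IFN-gamma mixture; protective hits raise ATP signal compared with cytokine alone wells.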 In kind it is functional. The following applies: Rattus norvegicus.
Assay [8] deals with Glyceraldehyde-3-phosphate dehydrogenase (Homo sapiens, UniProt P04406).
Chain of Glyceraldehyde-3-phosphate dehydrogenase (P04406 whole entry): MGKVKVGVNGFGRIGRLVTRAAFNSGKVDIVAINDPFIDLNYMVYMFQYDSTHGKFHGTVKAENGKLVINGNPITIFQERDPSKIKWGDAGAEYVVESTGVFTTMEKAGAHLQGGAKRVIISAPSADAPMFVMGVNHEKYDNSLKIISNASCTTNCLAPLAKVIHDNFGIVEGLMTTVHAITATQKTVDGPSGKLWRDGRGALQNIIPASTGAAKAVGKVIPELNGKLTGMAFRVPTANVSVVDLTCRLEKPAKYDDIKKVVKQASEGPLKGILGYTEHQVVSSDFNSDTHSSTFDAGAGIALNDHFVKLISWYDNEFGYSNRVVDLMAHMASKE
The subject of assay [9] is Streptococcus. The assay is described as follows: GAS UMAA2166 growth inhibition – luminescence, BacTiterGlo, counter-screen for streptokinase expression inhibitor project, dose response (AID 1915).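 Note: potency for reduction of bacterial viability or growth.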 It counts as functional, organism-based.
Assay [10] addresses G-protein coupled receptor 55 (Homo sapiens, UniProt Q9Y2T6). The assay is described as follows: selective activators of receptor GPR55 – imaging, U2OS cells, beta-arrestin-GFP redistribution, primary screen (AID 1961). It counts as functional.
Assay [11] can be described thus: IC50 of Artemis nuclease activity blockers – biochemical, fluorescence intensity, dose response (AID 720701).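 Note: Artemis endonuclease enzyme.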 In kind it is functional.
Assay [12] can be described thus: microbe, parasite or virus in culture. The following applies: Mycobacterium tuberculosis. In kind it is functional.
Assay [13] has as its target T2, Streptokinase A (Streptococcus pyogenes serotype M1, UniProt P10520).
T2 sequence (P10520 whole entry): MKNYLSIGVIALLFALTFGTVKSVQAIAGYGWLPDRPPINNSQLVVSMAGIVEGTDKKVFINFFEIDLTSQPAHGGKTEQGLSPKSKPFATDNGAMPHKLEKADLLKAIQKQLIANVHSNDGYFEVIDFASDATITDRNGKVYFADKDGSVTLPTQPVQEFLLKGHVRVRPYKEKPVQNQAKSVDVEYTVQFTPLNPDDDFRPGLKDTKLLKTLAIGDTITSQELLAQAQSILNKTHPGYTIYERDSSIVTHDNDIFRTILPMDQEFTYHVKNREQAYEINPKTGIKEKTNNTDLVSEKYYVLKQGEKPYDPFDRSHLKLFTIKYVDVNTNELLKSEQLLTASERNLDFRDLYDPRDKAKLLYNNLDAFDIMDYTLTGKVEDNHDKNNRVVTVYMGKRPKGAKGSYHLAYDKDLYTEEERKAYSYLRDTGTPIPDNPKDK
The assay is described as follows: viability-normalized secreted streptokinase activity reduction – plasminogen activation absorbance, OD405, dose response (AID 1914).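 Note: secreted streptokinase activity via plasminogen activation per viability signal from cell pellet.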 In kind it is functional, Streptococcus pyogenes M1 GAS.

Assay [14] deals with Streptococcus sp. 'group A'. The assay is described as follows: Streptococcus pyogenes SK(-)GAS viability under kanamycin – luminescence, BacTiterGlo, confirmation, counter-screen for streptokinase expression inhibitor project, dose response (AID 1900). In kind it is functional, organism-based.
For assay [15], the system named is HT-1080. The assay is described as follows: HT1080 cell viability loss – fluorescence readout (AID 620). The following applies: Homo sapiens. It counts as functional, cell-based.
Assay [16] deals with T3, Trace amine-associated receptor 1 (Homo sapiens, UniProt Q96RJ0).
T3 sequence (Q96RJ0 whole entry): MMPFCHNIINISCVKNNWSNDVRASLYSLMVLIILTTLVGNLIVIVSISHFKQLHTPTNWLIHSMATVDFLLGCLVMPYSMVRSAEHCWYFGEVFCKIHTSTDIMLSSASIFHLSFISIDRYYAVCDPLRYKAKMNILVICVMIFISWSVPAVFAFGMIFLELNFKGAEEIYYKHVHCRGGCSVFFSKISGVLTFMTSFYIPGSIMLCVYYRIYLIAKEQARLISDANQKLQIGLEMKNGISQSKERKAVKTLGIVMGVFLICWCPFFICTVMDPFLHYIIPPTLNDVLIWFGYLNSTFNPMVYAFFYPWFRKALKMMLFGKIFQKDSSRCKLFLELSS
Kind of assay: Counterscreen for agonists of the human trace amine associated receptor 1 (hTAAR1): Fluorescence-based cell-based high throughput dose response assay to identify hTAAR1 agonist that also desensitize TAAR1 receptor response. It counts as functional.

The target of assay [17] is T3, Trace amine-associated receptor 1. The assay is described as follows: Fluorescence-based cell-based high throughput dose response assay to identify agonists of the human trace amine associated receptor 1 (TAAR1). In kind it is functional.
Assay [18] is described as follows: cells. In kind it is functional, cell-based.
For assay [19], the target named is Potassium voltage-gated channel subfamily KQT member 2 (Rattus norvegicus, UniProt O88943). The assay is described as follows: potentiation of rat KCNQ2 current – cell-based, retigabine-insensitive compounds, dose response (AID 2654). In kind it is functional.
Chain of Potassium voltage-gated channel subfamily KQT member 2 (O88943 whole entry): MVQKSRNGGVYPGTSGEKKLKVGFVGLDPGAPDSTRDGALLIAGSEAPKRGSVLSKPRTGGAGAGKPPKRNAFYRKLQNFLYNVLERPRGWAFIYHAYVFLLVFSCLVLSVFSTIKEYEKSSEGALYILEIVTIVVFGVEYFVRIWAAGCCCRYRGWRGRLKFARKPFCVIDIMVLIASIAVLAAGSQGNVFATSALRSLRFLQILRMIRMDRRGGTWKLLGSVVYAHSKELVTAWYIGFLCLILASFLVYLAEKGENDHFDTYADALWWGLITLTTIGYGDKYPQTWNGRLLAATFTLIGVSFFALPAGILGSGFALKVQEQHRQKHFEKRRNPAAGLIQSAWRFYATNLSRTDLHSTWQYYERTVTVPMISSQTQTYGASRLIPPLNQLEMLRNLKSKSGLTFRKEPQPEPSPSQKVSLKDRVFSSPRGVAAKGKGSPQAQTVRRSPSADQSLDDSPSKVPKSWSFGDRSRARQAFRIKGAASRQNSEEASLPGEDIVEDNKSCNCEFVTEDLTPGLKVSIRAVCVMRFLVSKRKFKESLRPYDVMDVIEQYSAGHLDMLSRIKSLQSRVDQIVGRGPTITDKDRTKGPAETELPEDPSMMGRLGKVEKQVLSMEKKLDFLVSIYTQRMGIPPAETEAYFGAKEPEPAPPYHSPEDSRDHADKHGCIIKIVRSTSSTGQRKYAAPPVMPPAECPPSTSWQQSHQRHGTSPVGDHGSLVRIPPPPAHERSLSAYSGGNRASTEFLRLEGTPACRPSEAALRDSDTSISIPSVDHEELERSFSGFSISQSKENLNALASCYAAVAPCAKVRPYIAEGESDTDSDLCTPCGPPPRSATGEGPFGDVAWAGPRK
Assay [20] is described as follows: cells. In kind it is functional, cell-based. The source holds these as a separate data set.
For assay [21], the target named is T4, Rac GTPase-activating protein 1 (Homo sapiens, UniProt Q9H0H5).
T4 sequence (Q9H0H5 whole entry): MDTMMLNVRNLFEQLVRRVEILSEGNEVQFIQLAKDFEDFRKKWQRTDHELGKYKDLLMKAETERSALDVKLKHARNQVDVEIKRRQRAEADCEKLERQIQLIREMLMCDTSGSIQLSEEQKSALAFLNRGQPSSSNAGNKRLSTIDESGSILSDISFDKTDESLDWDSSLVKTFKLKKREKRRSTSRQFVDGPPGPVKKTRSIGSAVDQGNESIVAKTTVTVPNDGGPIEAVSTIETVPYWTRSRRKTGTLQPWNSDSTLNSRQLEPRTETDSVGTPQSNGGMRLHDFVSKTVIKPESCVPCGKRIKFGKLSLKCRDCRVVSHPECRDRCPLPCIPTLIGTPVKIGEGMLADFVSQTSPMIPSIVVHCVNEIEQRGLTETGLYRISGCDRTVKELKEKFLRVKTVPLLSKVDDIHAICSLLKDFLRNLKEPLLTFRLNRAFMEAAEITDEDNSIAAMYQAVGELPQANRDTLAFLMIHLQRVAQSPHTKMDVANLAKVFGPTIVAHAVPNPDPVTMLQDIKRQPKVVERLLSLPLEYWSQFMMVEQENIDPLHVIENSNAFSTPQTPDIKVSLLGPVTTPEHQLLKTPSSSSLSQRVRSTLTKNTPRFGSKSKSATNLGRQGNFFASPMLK
The assay is described as follows: blockers of MgcRacGAP-driven Rac1 GTP hydrolysis – biochemical, ADP Hunter fluorescence, primary and confirmatory, confirmation (AID 624330). It counts as functional.

Assay [22] deals with T5, CAAX prenyl protease 2 (Homo sapiens, UniProt Q9Y256).
T5 sequence (Q9Y256 whole entry): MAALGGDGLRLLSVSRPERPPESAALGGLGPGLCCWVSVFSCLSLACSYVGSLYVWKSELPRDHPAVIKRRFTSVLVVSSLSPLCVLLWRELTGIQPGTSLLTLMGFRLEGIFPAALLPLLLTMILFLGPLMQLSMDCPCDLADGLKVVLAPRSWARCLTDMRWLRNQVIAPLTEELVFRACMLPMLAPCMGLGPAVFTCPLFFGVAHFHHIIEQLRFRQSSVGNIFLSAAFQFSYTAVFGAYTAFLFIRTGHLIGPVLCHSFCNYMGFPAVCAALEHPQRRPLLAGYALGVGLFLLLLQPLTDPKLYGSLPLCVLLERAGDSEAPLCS
Kind of assay: inhibition of Ras-converting CAAX protease Rce1 – biochemical, yeast membranes, quenched-peptide fluorescence, cherry-pick, dose response (AID 588849).

Assay [23] has as its target CAAX prenyl protease 2 (Saccharomyces cerevisiae S288c, UniProt Q03530). In kind it is biochemical.
Assay [24] is described as follows: viability loss in HeLa cells – cytotoxicity control for MgcRacGAP inhibitor project, dose response (AID 624300). In kind it is functional.
The target in assay [25] is Trypsin (Sus scrofa, UniProt P00761). Kind of assay: trypsin protease activity blockade – biochemical, quenched peptide fluorescence, cherry-pick, selectivity assay for Rce1 protease inhibitor project, dose response (AID 488789).
Chain of Trypsin (P00761 whole entry): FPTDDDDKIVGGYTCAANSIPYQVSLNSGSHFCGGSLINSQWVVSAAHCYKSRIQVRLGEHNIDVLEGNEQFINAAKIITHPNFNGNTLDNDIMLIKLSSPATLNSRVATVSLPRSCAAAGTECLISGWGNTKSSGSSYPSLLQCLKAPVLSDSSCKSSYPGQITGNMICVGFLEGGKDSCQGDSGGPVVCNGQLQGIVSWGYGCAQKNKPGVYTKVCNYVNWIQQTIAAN

The source made the active and inactive calls.
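Throughout, for IC50 Mean: confirmatory dose-response retesting of NadD inhibitor hits first found in an ultra-high-throughput screen.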

T1 sequence (P65502 whole entry, the tested form may be a part): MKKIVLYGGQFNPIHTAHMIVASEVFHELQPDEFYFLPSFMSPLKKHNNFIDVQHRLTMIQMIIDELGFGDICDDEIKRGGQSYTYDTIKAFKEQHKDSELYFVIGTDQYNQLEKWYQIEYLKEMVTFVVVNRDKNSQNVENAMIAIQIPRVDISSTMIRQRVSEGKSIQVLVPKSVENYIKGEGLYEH
Chain of ELAV-like protein 1 (Q15717 whole entry): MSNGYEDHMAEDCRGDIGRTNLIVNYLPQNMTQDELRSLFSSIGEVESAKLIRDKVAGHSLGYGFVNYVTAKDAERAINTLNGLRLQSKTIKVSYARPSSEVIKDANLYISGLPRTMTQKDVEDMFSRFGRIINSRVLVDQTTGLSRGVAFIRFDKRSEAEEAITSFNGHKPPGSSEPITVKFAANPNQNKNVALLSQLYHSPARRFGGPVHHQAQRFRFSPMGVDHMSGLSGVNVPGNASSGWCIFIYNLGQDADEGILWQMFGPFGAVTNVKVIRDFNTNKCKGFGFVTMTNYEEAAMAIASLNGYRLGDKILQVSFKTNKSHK
Chain of G-protein coupled receptor 55 (Q9Y2T6 whole entry): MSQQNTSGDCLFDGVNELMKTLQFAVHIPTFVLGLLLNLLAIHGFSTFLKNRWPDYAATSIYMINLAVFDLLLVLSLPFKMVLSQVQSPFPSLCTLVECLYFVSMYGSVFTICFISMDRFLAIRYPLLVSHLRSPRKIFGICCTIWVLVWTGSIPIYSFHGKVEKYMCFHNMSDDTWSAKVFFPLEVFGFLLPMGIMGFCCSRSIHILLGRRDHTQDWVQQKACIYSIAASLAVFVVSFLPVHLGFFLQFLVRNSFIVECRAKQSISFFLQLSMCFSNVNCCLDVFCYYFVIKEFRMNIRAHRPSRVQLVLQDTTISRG
Chain of CAAX prenyl protease 2 (Saccharomyces cerevisiae S288c, UniProt Q03530) (Q03530 whole entry): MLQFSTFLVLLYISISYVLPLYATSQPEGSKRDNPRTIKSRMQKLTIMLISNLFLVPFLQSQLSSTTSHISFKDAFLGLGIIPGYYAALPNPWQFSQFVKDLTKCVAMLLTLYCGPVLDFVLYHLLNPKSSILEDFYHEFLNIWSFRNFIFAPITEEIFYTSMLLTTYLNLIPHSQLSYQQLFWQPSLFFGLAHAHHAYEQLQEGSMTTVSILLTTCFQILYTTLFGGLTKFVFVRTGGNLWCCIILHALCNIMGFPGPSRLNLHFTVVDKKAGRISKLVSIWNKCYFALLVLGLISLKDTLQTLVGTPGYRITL
Chain of Luciferin 4-monooxygenase (P08659 whole entry): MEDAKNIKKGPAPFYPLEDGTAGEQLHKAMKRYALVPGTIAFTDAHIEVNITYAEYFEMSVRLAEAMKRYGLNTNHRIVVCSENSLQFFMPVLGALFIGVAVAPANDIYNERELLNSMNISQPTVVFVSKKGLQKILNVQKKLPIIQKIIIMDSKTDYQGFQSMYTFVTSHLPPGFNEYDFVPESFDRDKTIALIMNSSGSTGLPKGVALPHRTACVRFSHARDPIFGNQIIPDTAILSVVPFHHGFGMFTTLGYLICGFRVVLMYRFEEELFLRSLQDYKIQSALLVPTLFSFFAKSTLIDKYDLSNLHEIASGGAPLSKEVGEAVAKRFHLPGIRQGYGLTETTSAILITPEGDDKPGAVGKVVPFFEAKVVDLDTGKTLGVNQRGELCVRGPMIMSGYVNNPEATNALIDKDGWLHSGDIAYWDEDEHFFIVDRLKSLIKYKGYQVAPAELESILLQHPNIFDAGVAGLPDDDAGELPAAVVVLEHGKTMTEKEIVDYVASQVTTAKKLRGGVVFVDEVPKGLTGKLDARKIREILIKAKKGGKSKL

Turning to `COC1C(OC(=O)c2ccc(C)[nH]2)C(O)C(Oc2ccc3c(O)c(NC(=O)c4ccc(O)c(CC=C(C)C)c4)c(=O)oc3c2Cl)OC1(C)C` (stereo not given), the IC50 in [1] is 41.9 µM (active); in assay [2], 2.1 µM (active); in [3] it was 13 µM (active); in assay [4], 7.01 µM (active); in assay [5], 38.4 µM (active).
Take `Cc1cc(/C=N/n2cnnc2)c(C)n1-c1ccc(OCc2ccc(Cl)cc2Cl)cc1`: the EC50 (in general, the midpoint of the concentration-response curve) in [6] was 0.28 µM (active); in assay [9], 4.73 µM (active); in assay [10], 1.35 µM (active); in [13], > 150 µM (not active); in [14] it was 2.46 µM (active); in assay [15], > 50 µM (not active). The AC50 (commonly the concentration giving half of the maximal activity seen) in assay [7] was 1.6 µM (active). For the same molecule, the results for the IC50 in [8] and in assay [11] were > 100 µM (not active) and 5.84 µM (active), respectively. In addition, the CC50 in [12] is 14.1 µM (active).
As to `O=C(Nc1cccnc1)Nc1cccc(F)c1`, the results for the IC50 in assay [16] and in assay [18] were 5.05 µM (active) and > 29.9 µM (inactive), respectively. Also, the EC50 in assay [17] was 0.675 µM (active); in assay [19], 6.28 µM (active); in [20], > 29.9 µM (inactive).
With `COc1cc(-c2nc3ccccn3c2NCC2CCCO2)ccc1O` (stereo not given), the IC50 in assay [21] was 49.9 µM (active). The concentration at half-maximal activity (AC50) in [22] was 6.82 µM (active); in [23], 23.4 µM (active); in assay [25], 12.8 µM (active). Further, the CC50 in assay [24] was 100 µM (active).
